Results published in patent US9119398B2, “Plant growth regulating compounds” (Syngenta Participations AG, priority 2012, dated 2015).
Where “and” joins values, the source holds several entries; their conditions need not be identical. Identical values can stand only once. Values belong to the compound of their own block, whether it stands above or below them.

Key:
[1] = system: Brassica oleracea cv Botrytis (temperate cauliflower) seeds; experiment: Paper germination test, temperate cauliflower seeds, 10° C. in the light; assay type: in vivo; conditions: 25 μM, sets A and B separate experiments
Experimental: The effect of compounds of Formula (I) on the germination of Brassica oleracea cv Botrytis or common cauliflower was tested on two types of cauliflowers: temperate types and tropical types. These two types were chosen because they display different sensitivities to the light conditions and temperature during germination. Germination of a sensitive temperate type is inhibited by light at 10° C. while for the tropical types germination at 20° is stimulated by the presence of light.
The temperate seed batches tested are part of commercially produced seed batches of various varieties which are known to be sensitive to light at 10° C. These seeds were harvested and cleaned according standard commercial procedures. Ready seed batches were used (Ready indicates the processing level of these seeds: they have been cleaned and sized but received no other treatments). The tropical seed batches tested are part of seed batches produced as basic seed (for maintenance of the parental line) and were processed accordingly.
Germination was assessed using the standard paper germination test for Brassica: Fifty seeds were placed on blue germination paper, which was moistened with the appropriate solutions, in closed oblong germination boxes. Each condition was tested in duplo. Germination boxes were placed in controlled germination cabinets with the appropriate temperature and light conditions. Germination of seeds was counted at regular intervals. Seeds were considered to be germinated when the radical had protruded the testa and endosperm (radical size approximately 1 mm)
Test compounds were dissolved in DMSO at a concentration of 50 mM and stored at −20° C. The strigolactone analogue GR24 (commercially available as a racemic mixture of 2 diastereoisomers, referred to as “synthetic strigolactone GR-24” and first prepared by Johnson A. W. & all, Journal of the Chemical Society, Perkin Transactions 1, 1981, page 1734-1743) was included as positive control. Germination solutions were prepared by diluting the stock solutions with demineralized water till 25 μM. As control solutions demineralized water and a 0.05% v/v DMSO solution were used.

[2] = system: Orobanche cumana Wallr. seeds; experiment: Germination of preconditioned Orobanche cumana seeds on glass fiber filter paper in petri dishes; assay type: in vivo; conditions: mean, N = 5 × 100 seeds, seed lot IN153
Experimental: The effect of compounds of Formula (I) on germination of Orobanche cumana Wallr. seeds was evaluated on glass fiber filter paper (GFFP) in petri dishes. Seeds were preconditioned at moisture and suitable temperature to become responsive to the specific chemical germination stimulants.
Test compounds were dissolved in DMSO (10 000 mg l^−1) and stored at room temperature in a desiccators with desiccants. The stock solutions were dissolved with deionised water to the appropriate final test concentration.
Seeds of O. cumana race ‘F’ (IN153) were collected from a sunflower field in Manzanilla (Seville, Spain) in 2006 and stored at room temperature. To separate seeds from heavy organic debris, a modified sucrose floatation technique as described by Hartman & Tanimonure (Plant Disease (1991), 75, p. 494) was applied. Seeds were filled into a separation funnel and stirred in water. When seeds floated to the surface, the water fraction containing heavy debris was discarded. Seeds were re-suspended in 2.5M sucrose solution (specific gravity of 1.20) and heavy debris was allowed to settle down for 60 min After removing debris, seeds were disinfected in 1% sodium hypochlorite solution and 0.025% (v/v) Tween 20 for 2 min. The seeds were decanted onto two layers of cheesecloth, rinsed with sterile deionised water and re-suspended in sterile deionised water. Two ml of the seed suspension containing approximately 150-400 seeds were spread evenly on two layers of sterile glass fiber filter paper disc ([…]) in Petri dishes (Ø9 cm). After wetting the discs with 3 ml sterile deionised water, petri dishes were sealed with parafilm. Seeds were incubated for 10 days at 20° C. in the dark for seed conditioning. The upper disc with conditioned seeds was briefly dried, transferred to a petri dish lined with a dry GFFP disc, and wetted with 6 ml of the appropriate test solution. The compounds of Formula (I) were tested at concentrations of 0.001, 0.01, 0.1, or 1 mg l^−. The strigolactone analogue GR24 was included as positive control and 0.01% DMSO as negative control. All treatments were tested in five replicates. Seeds were re-incubated at 20° C. in the dark and examined for germination 10 days later. The radicles of germinated seeds were stained for 5 min with blue ink (MIGROS, Switzerland) in 5% acetic acid according to Long et al. (Seed Science Research (2008), 18, p. 125). After staining, seeds were photographed using a camera stand mounted with a digital SLR camera (Canon EOS 5D). Germination of 100 seeds per replicate was evaluated on digital images. Seeds were considered germinated when the radicle protruded from the seed coat.

[3] = temperate cauliflower Spacestar seed batch 11B313 (cold-sensitive)
[4] = temperate cauliflower Spacestar seed batch 11B314 (not cold sensitive)
[5] = Table B5, concentration 0.01 mg 1^−1 (second column), DMSO control 1.4% germination
[6] = Table B5, concentration 0.01 mg 1^−1 (third column), DMSO control 1.4% germination
[7] = Table B5, concentration 1 mg 1^−1, DMSO control 1.4% germination

Compound: CC1=C[C@H](O/C=C2/C(=O)O[C@@H]3c4ccccc4C[C@H]23)OC1=O (mixture of isomers) [GR-24, reference compound]
Gmax (%), total germination as percentage of sown seeds [1, 3]: 71.5% and 80.0% | Gmax (%), total germination as percentage of sown seeds [1, 4]: 93.5% and 93.0% | stimulation (%), extra germination compared to the DMSO treatment, as percentage of the germination in the DMSO treatment [1, 4]: 3.3% and 8.1% | Germination (%) ([2]; Concentration 0.01 mg l^-1, 10 days at 20° C. in the dark): 88% | Germination (%) ([2]; Concentration 0.01 mg l^-1 as printed, 10 days at 20° C. in the dark): 86.6% | Germination (%) ([2]; Concentration 1 mg l^-1, 10 days at 20° C. in the dark): 95.2% | Germination (%) ([2]; Table B1, concentration 0.001 mg 1^−1, DMSO control 0.4% germination): 24.8% | Germination (%) ([2]; Table B1, concentration 0.1 mg 1^−1, DMSO control 0.4% germination): 47.2% | Germination (%) ([2]; Table B1, concentration 1 mg 1^−1, DMSO control 0.4% germination): 80.2% | Germination (%) ([2]; Table B2, concentration 0.01 mg 1^−1, DMSO control 2.4% germination): 12.2% | Germination (%) ([2]; Table B2, concentration 0.1 mg 1^−1, DMSO control 2.4% germination): 46.4% | Germination (%) ([2]; Table B2, concentration 1 mg 1^−1, DMSO control 2.4% germination): 85.2% | Germination (%) ([2]; Table B3, concentration 0.001 mg 1^−1, DMSO control 0% germination): 26% | Germination (%) ([2]; Table B3, concentration 0.01 mg 1^−1, DMSO control 0% germination): 51% | Germination (%) ([2]; Table B3, concentration 0.1 mg 1^−1, DMSO control 0% germination): 84.2% | Germination (%) [2, 5]: 78.4% | Germination (%) [2, 6]: 65% | Germination (%) [2, 7]: 86.6% | Germination (%) ([2]; Table B6, concentration 0.001 mg 1^−1, DMSO control 2.4% germination): 23.0% | Germination (%) ([2]; Table B6, concentration 0.1 mg 1^−1, DMSO control 2.4% germination): 43.2% | Germination (%) ([2]; Table B6, concentration 1 mg 1^−1, DMSO control 2.4% germination): 58.1%

melting point: 150 to 160 °C
Compound: CC1=CC(O/C=C2\CCCCN(c3ccccc3)C2=O)OC1=O (centres unmarked) [Ic-13, (3E)-3-[(4-methyl-5-oxo-2H-furan-2-yl)oxymethylene]-1-phenyl-azepan-2-one]

Compound: CC1=CC(O/C=C2\CCCCNC2=O)OC1=O (centres unmarked) [Ia-13, (3E)-3-[(4-methyl-5-oxo-2H-furan-2-yl)oxymethylene]azepan-2-one]
Gmax (%), total germination as percentage of sown seeds [1, 3]: 42.3% | stimulation (%), extra germination compared to the DMSO treatment, as percentage of the germination in the DMSO treatment [1, 3]: −21.8% | Gmax (%), total germination as percentage of sown seeds [1, 4]: 92.5% | stimulation (%), extra germination compared to the DMSO treatment, as percentage of the germination in the DMSO treatment [1, 4]: 7.6% | Germination (%) [2, 5]: 34.2% | Germination (%) [2, 6]: 25.6% | Germination (%) [2, 7]: 70%
